# According to patent US20210220408A1, “ARYL HYDROCARBON RECEPTOR ANTAGONISTS AND METHODS OF USE” (Magenta Therapeutics Inc., priority 2018, published 2021):
# Target: T1, aryl hydrocarbon receptor (AHR) (Homo sapiens, UniProt P35869)
# T1 sequence (P35869 11-848): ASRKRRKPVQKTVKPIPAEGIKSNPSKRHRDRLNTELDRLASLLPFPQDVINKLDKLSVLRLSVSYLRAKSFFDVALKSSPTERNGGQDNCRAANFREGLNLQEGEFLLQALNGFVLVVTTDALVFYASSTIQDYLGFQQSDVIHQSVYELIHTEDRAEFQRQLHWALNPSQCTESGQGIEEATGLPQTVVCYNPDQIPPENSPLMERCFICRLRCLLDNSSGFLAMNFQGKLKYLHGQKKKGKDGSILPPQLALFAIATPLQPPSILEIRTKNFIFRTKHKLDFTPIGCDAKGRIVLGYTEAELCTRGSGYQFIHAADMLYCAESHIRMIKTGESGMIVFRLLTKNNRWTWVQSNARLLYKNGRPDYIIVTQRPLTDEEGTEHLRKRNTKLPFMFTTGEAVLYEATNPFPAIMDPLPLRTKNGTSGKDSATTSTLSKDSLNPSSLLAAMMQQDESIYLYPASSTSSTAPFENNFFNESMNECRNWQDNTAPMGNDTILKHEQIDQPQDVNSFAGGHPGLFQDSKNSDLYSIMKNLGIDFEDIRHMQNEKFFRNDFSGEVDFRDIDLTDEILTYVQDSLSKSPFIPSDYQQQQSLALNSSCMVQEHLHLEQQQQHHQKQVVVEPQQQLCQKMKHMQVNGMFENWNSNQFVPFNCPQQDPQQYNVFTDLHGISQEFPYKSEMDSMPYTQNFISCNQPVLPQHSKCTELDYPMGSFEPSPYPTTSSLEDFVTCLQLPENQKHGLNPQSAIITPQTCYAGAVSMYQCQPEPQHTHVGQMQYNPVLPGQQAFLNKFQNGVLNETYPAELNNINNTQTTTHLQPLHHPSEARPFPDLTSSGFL
# Assay: DRE-Luciferase reporter high-throughput screen (AHR antagonist, VAF347-activated)
# Details: not given
row,Structure (SMILES),IC50 [nM]
1,O=C(Nc1ccc(-c2nnc3n2CCCCC3)cc1)c1cccc2cccnc12 [compound 24],200 to 500
2,CSc1ccc(N2C(=O)C3Cc4ccccc4CN3C2=O)cc1 (stereo not drawn) [compound 120],200 to 500
3,Cc1ccc(NC(=O)c2cn3ccccc3n2)cc1 [compound 21],200 to 500
4,N#Cc1ccc(-c2ccncc2)nc1SCc1ccccn1 [compound 89],500 to 1000
5,COc1c(C)cccc1C(=O)Nc1cc(-c2ccc(F)cc2)nn1C [compound 11],500 to 1000
6,CC(C)n1nnc2cc(C(=O)Nc3ccc(Cl)cc3)ccc21 [compound 17],500 to 1000
7,CCC(=O)N1CCc2cc(C(=O)Nc3ccn(CCc4ccccn4)n3)ccc21 [compound 47],500 to 1000
8,Cc1nnc(Oc2ccc(Cl)cc2Cl)c2ccccc12 [159A],1000 to 2000
9,Cc1nn(-c2nc3ccccc3[nH]2)c2c1C(=O)CC(c1cccs1)C2 (stereo not drawn) [66B],1000 to 2000
10,Cc1c(C(N)=O)nnc2cc(-c3ccccc3)nn12 [75B],1000 to 2000
11,Cc1cccc(NC(=O)c2ccc3c(c2)CC(C)O3)c1 (stereo not drawn) [38A],> 2000
12,Cc1c(C(=O)Nc2ccccc2)nnn1Cc1ccccc1 [26A],1000 to 2000
13,CCn1cc(C(=O)Nc2ccc(C(C)C)cc2)cn1 [23A],1000 to 2000
14,N#Cc1cc(F)c(NC(=O)c2nsc(Cl)c2Cl)cc1F [28A],1000 to 2000
15,FCCCSc1nnc(-c2cc3cc4ccccc4nc3s2)o1 [compound 155],500 to 1000
16,O=C(Nc1ccc(-c2nccs2)cc1)c1ccc(CN2C(=O)CNC2=O)cc1 [10A],1000 to 2000
17,N#Cc1ccc(N2CCN(C(=O)Nc3cccc(C(F)(F)F)c3)CC2)nc1 [80A],1000 to 2000
18,COc1nc2ccccc2nc1CCC(=O)NC1CCCCCC1 [161A],> 2000
19,O=C(Nc1nnc(-c2ccc(F)cc2)[nH]1)c1ccc(S(=O)(=O)C(F)F)cc1 [27A],1000 to 2000
20,CCC1CCc2c(sc(NC(=O)c3c(C)noc3C)c2C(N)=O)C1 (stereo not drawn) [31B],1000 to 2000
21,O=C(Nc1ccc2ccccc2c1)c1cccc(NC(=O)C(F)(F)F)c1 [35A],1000 to 2000
22,Cc1cccc(NC(=O)c2nc(-c3cn(CC4CCCO4)cn3)n3ccccc23)c1 (stereo not drawn) [47A],> 2000

row,Structure (SMILES),IC50 [nM]
1,CCOC(=O)c1ccc(Nc2nc(=O)c3cccnc3s2)cc1 [196A],> 2000
2,OCc1cc(Cl)c(OCc2ccc(F)cc2)c(Cl)c1 [90B],1000 to 2000
3,CCN(C(=O)C1CC1)c1nc(-c2ccc(OC)cc2)cs1 [58A],1000 to 2000
4,Cc1ccc(-c2cc(-c3ccccc3)c3c(N)c(S(C)(=O)=O)sc3n2)cc1 [169A],1000 to 2000
5,COc1ccccc1C(=O)Nc1c(C)cc(C)c2cccnc12 [27B],1000 to 2000
6,N#Cc1ccc(OCc2ccc3nonc3c2)cc1 [174A],> 2000
7,COc1ccccc1-c1nc(-c2ccc(CN(C)C(C)=O)cc2)cs1 [compound 50],< 200
8,O=[N+]([O-])c1cccc(-c2csc(-c3cccc(-n4cnc(Cl)c4Cl)c3)n2)c1 [compound 51],200 to 500
9,O=[N+]([O-])c1ccc(C2COC(c3ccc(Cl)cc3)O2)cc1 (stereo not drawn) [102B],1000 to 2000
10,O=C(NCCn1nc(-c2cccs2)ccc1=O)c1cccs1 [194A],> 2000
11,CN1CC(c2ccccc2)=Cc2c1ccc1nonc21 [188A],1000 to 2000
12,Cc1ccc(-c2nc(CSc3nccn3-c3ccccc3)co2)cc1 [136A],> 2000
13,Cc1ccc2cc(NC(=O)c3cccc4c3OC(C)(C)C4)ccc2n1 [50A],> 2000
14,CCOC(=O)c1cc(-c2ccc(F)cc2)[nH]c1C [100A],> 2000
15,COc1c(C(=O)Nc2ccc(Cl)cc2)ccc2ccccc12 [20B],500 to 1000
16,CCOc1ccc(C(=O)Nc2ccccc2C(N)=O)cc1 [7B],1000 to 2000
17,O=C(Nc1ccc(N2CCC(C(F)(F)F)CC2)nc1)c1cccc(Cl)c1 [13A],> 2000
18,Fc1ccc(-c2cc(N3CCCCC3)on2)cc1 [81B],> 2000
19,N#Cc1cc(NCCOCC(F)(F)F)nc2ccc([N+](=O)[O-])cc12 [154A],> 2000
20,Cc1c(Cl)cccc1NC(=O)c1occc1COc1ccccc1 [19A],1000 to 2000
21,Cc1ccc(NC(=O)c2ccc(OC(F)(F)F)cc2)nc1 [compound 10],500 to 1000
22,COc1ccc(Nc2ccc3ccccc3n2)cc1Cl [157A],1000 to 2000

row,Structure (SMILES),IC50 [nM]
1,COc1ccc(Br)cc1-c1nc(Cn2cnc(C#N)n2)cs1 [35B],> 2000
2,CNC(=O)c1ccc(CN(C)C(=O)c2ccc(-c3nnc(-c4ccccc4C)o3)cc2)cc1 [140A],1000 to 2000
3,N#Cc1ccc(CSc2ncc3ccccn23)cc1 [115A],1000 to 2000
4,COc1ccc(-c2cnn3c(C)cc(C)nc23)cc1OC [71B],1000 to 2000
5,CN1/C(=N/c2ccccc2)SCC1(O)c1ccc([N+](=O)[O-])cc1 (stereo not drawn) [compound 142],200 to 500
6,O=C(Nc1cc(=O)c2ccccc2o1)c1ccc(Cl)cc1 [45A],> 2000
7,C1=C(c2ccccc2)CCN(c2ccc3nnnn3n2)C1 [compound 110],500 to 1000
8,COC(=O)c1ccc(NC(=O)CCn2nc(C)cc2C)s1 [108A],> 2000
9,Cc1c(COc2ccccc2C#N)noc1-c1ccc(F)cc1 [129A],1000 to 2000
10,CSc1cc(CSc2ccc(Cl)cc2)nc(-c2ccccn2)n1 [85A],1000 to 2000
11,CN(C)c1ccnc2sc(C(=O)c3ccccc3)c(N)c12 [106B],< 200
12,Cn1c(COc2cccc3ccccc23)nc2ccccc21 [67B],1000 to 2000
13,Cc1ccc(OCc2nc(N)nc(N(C)C)n2)cc1C [51B],1000 to 2000
14,c1ccc(-c2ccc(OCc3ccno3)cc2)cc1 [130A],1000 to 2000
15,CS(=O)(=O)Nc1cccc(C(=O)Nc2cccc3cccnc23)c1 [36A],1000 to 2000
16,CC(=O)Nc1cc(Cl)c(-c2ccc([N+](=O)[O-])o2)c(Cl)c1 [101B],200 to 500
17,Cc1ccc(NC(=O)c2cc(C(C)C)n[nH]2)cc1 [24A],> 2000
18,Clc1ccc(/C=N/Nc2nc3cc(Cl)ccc3[nH]2)cc1 [83A],> 2000
19,N#Cc1cnc2c(-c3ccc(Cl)cc3)cnn2c1 [70B],500 to 1000
20,O=C(Nc1ccc2[nH]c(C(F)(F)F)nc2c1)c1cccn(Cc2ccccc2)c1=O [compound 49],< 200
21,O=[N+]([O-])c1ccc(-n2cnc(-c3ccc(F)cc3)c2)nc1 [52B],200 to 500
22,O=C(Nc1ccc(Cl)cc1)c1ccc(-c2ccccn2)s1 [15B],500 to 1000

row,Structure (SMILES),IC50 [nM]
1,CS(=O)(=O)c1ccc(-c2csc(-c3cccs3)n2)cc1 [compound 61],200 to 500
2,CNS(=O)(=O)c1ccc2c(c1)CCN2C(=O)c1ccn(-c2cccc(F)c2)n1 [107A],1000 to 2000
3,CCOC(=O)c1sc(NC(=O)c2cn3ccccc3n2)cc1C [compound 40],< 200
4,COC(=O)c1sc(-c2ccc(CC(C)C)cc2)cc1N [146A],1000 to 2000
5,COc1ccnc(N2CCN(c3ccc(Cl)cc3)CC2)c1C#N [compound 80],< 200
6,Cc1cccc(-n2ccc(=O)c(C(=O)Nc3ccccc3F)n2)c1 [compound 31],200 to 500
7,Clc1ccccc1CNc1ccc(-c2ccccc2)nn1 [87A],1000 to 2000
8,FC(F)(F)c1nnc2ccc(N3CCN(c4ccccc4)CC3)nn12 [73A],> 2000
9,Cc1nn(C)cc1-c1nnc(-c2cccc(C(F)(F)F)c2)o1 [138A],1000 to 2000
10,O=C(Nc1ccc(Cl)cn1)C1Cc2ccccc2C1 [26B],500 to 1000
11,C(#Cc1ccc(-c2ccn[nH]2)cc1)c1ccccc1 [103A],1000 to 2000
12,O=C(Nc1cc2ccccc2s1)c1ccccc1 [23B],1000 to 2000
13,CN(/N=C/c1cc(Br)cs1)c1ccc(Cl)nn1 [50B],500 to 1000
14,O=c1[nH]c2ccccc2nc1NCc1ccc(F)cc1 [168A],1000 to 2000
15,CN(Cc1ccn(C)n1)C(=O)c1cc(-c2ccc(Cl)c(Cl)c2)[nH]n1 [104A],> 2000
16,COc1ccc(-c2csc(C3=C(N)N(C(C)C)CC3=O)n2)cc1 [compound 55],500 to 1000
17,Cc1nc2nc(SCCOc3ccc(C#N)cc3)nn2c(C)c1C [125A],1000 to 2000
18,Fc1ccc(-c2ccc(-c3nnc4n3CCCCC4)s2)cc1 [149A],> 2000
19,CN(C)c1nc(N2CCN(c3ccc(F)cc3)CC2)cc(C(F)(F)F)n1 [compound 81],200 to 500
20,COc1ccc(C(=O)c2cnc3ncccn23)cc1 [121A],> 2000

# System: mobilized peripheral blood CD34+ cells
# Assay: CD34+ expansion assay
# Type: cell-based
# Details: Homo sapiens; read-out: CD34 Frequency EC50
# Protocol: Approximately 3,000 mobilized peripheral blood CD34+ cells were plated per well in 384-well plate at a final volume of 45 μL in HSC growth media (SFEM supplemented with Pen/Strep, 50 ng/mL FLT3L, TPO, SCF and IL-6). Serial dilutions were made in HSC growth media with a top final concentration of 10 μM. 5 μL 10× stock was added to each well. The plate was gently tapped on all sides and incubated for 7 days at 37° C./5% CO2. On day 7, the media was aspirated on a Biotek plate washer and 30 μL staining solution was added to the cells with antibodies against CD34-PE, CD90-APC, CD45RA-PE-CF594 in PBS. Cells were washed once in PBS and resuspended in 80 μL for final volume. 40 μL was acquired by flow cytometry (BD Celesta).
row,Structure (SMILES),EC50 [nM]
1,O=C(Nc1ccc(-c2nnc3n2CCCCC3)cc1)c1cccc2cccnc12 [compound 24],500 to 1000
2,CSc1ccc(N2C(=O)C3Cc4ccccc4CN3C2=O)cc1 (stereo not drawn) [compound 120],500 to 1000
3,Cc1ccc(NC(=O)c2cn3ccccc3n2)cc1 [compound 21],500 to 1000
4,N#Cc1ccc(-c2ccncc2)nc1SCc1ccccn1 [compound 89],< 500
5,COc1c(C)cccc1C(=O)Nc1cc(-c2ccc(F)cc2)nn1C [compound 11],1000 to 5000
6,CC(C)n1nnc2cc(C(=O)Nc3ccc(Cl)cc3)ccc21 [compound 17],< 500
7,CCC(=O)N1CCc2cc(C(=O)Nc3ccn(CCc4ccccn4)n3)ccc21 [compound 47],1000 to 5000
